Values of other authors as cited in US7928052B2, “Enzyme stabilization” (Dow Global Technologies LLC, priority 2004, dated 2011).

CC(O)C(=O)O (centres unmarked) [lactic acid]
K1, complexation constant B(OH)3+H2L⇄[1:1]−+H3O+ (H2L is fully protonated lactic acid): 1.8×10^−3
K1′, complexation constant B(OH)3+HL−⇄[1:1]−+H2O (pH 4 to about pH 10, lactic acid having lost a proton): 9.0 M⁻¹
